Earlier results in patent US20040229771A1, “Method of reducing decline of or preserving residual renal function” (priority 2003, published 2004).

Test system: cell culture
Details: cell culture experiments, reference (2)

SMILES: O=CC(=O)C=CC(O)CO (stereo not shown) [3,4-DGE, 3,4-dideoxyglucosone-3-ene]
- immunosuppressive effects: immunosuppressive effects
